Assay results as given in US20040175817A1, “Crystallised catalytic domain of matrix metalloproteinase 9 (mmp9) and the use of its three dimensional structure to design mmp9 modulators” (priority 2001, published 2004).
Entries after “also recorded” stand apart in the source; their conditions may differ.

Target: T1, MMP9(107-216,391-443) (Homo sapiens, UniProt P14780, DEL217-390)
T1 construct: phenylalanine (107) and a stop codon was introduced, via the 3′ primer, after residue 443; made in house; host or cells: E. coli BL21(DE3)
T1 sequence (P14780 with tags, fused parts or gaps DEL217-390 limits assumed): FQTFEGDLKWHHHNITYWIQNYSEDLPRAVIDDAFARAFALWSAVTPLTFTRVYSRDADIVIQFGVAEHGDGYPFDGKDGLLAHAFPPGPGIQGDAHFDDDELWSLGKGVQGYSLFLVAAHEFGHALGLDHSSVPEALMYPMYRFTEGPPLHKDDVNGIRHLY
Assay: Auto-proteolysis (autodegradation) of MMP9 catalytic domain during refolding, storage and crystallisation
Assay type: biochemical
Excerpt: Another major hurdle in the crystallisation and structure determination of MMP9 is that the MMP9 catalytic domain is aggressively autolytic. We therefore purified wild-type MMP9 in the presence of an inhibitor and then crystallised the purified complex. Addition of an inhibitor during the refolding step following urea denaturation is essential for prevention of N-terminal degradation and the formation of well-ordered crystals.
Following expression in E. coli, MMP9(107-216,391-443) is mainly located in the inclusion body fraction. The E. coli were harvested, washed and lysed and centrifuged to isolate the insoluble protein. The insoluble fraction was then suspended in 6M Urea to solubilise the protein. To generate active MMP9(107-216,391-443) the solubilised material was dialysed sequentially versus 4M, 1M and 0M Urea. […] Post dialysis, the protein was subjected to zinc chelate chromatography which selectively bound the MMP9 catalytic domain. A further chromatography step was then carried out using the tripeptide Pro-Leu-Gly bound to sepharose which bound correctly folded MMP9 catalytic domain. The protein was then eluted by addition of an MMP9 inhibitor. Expression and refolding of the [E402Q]MMP9(107-216,391-443) construct was carried out as for the wild type construct except that no acetohydroxamic acid was added to the refold buffers. […]

CC(=O)NO [acetohydroxamic acid]
auto-proteolysis of the N-terminus / autodegradation of the wild type MMP9 protein during refolding (added to the refold buffers, wild type MMP9 catalytic domain): prevent autodegradation; also recorded: inhibited auto-proteolysis of the N-terminus of the protein
autodegradation of the wild type MMP9 protein during storage or during the period of crystallisation (storage or crystallisation period, wild type MMP9): not sufficiently potent to prevent autodegradation
